Active and inactive are the calls of the source. The calls are words filed in the database; no cut-off is given here.
Columns and labels:
RAW264.7 [1] = experiment: Antiinflammatory activity in mouse RAW264.7 cells assessed as inhibition of LPS-induced COX2 expression at 1 to 5 uM preincubated for 1 hr followed by LPS-stimulation and measured after 16 hrs by Western blot analysis; type: functional, cell-based
RAW264.7 [2] = experiment: Antiinflammatory activity in mouse RAW264.7 cells assessed as inhibition of LPS-induced iNOS expression at 1 to 5 uM preincubated for 1 hr followed by LPS-stimulation and measured after 16 hrs by Western blot analysis; type: functional, cell-based
RAW264.7 [3] = experiment: Antiinflammatory activity in mouse RAW264.7 cells assessed as inhibition of LPS-induced nitirc oxide production preincubated for 1 hr followed by LPS-stimulation and measured after 18 hrs by Griess assay; type: functional, cell-based
[4] = Cytotoxicity against LPS-stimulated mouse RAW264.7 cells assessed as cell viability at antiinflammatory IC50 preincubated for 1 hr followed by LPS-stimulation and measured after 18 hrs by MTT assay relative to control; type: cell-based; settings: LPS-stimulated RAW264.7 cells, read-out: Activity

SMILES	IC50 (RAW264.7 [3])	further results
C[C@@H]1O[C@@H](O[C@H]2[C@H](O[C@H]3CC[C@@]4(C)[C@@H](CC[C@]5(C)[C@@H]4CC=C4[C@@H]6CC(C)(C)CC[C@]6(C(=O)O)CC[C@]45C)[C@]3(C)CO)OC[C@H](O)[C@@H]2O)[C@H](O)[C@H](O)[C@H]1O [ALPHA-HEDERIN]	1.1 µM	inhibition (RAW264.7 [1]): Active; inhibition (RAW264.7 [2]): Active
CC1=CC(=O)CC(C)(C)[C@@]1(O)/C=C/[C@H](C)O	> 50 µM	–
C[C@@H]1O[C@@H](O[C@H]2[C@H](O)[C@@H](O)[C@H](OC[C@H]3O[C@@H](OC(=O)[C@]45CCC(C)(C)C[C@H]4C4=CC[C@@H]6[C@@]7(C)CC[C@H](O)[C@@](C)(CO)[C@@H]7CC[C@@]6(C)[C@]4(C)CC5)[C@H](O)[C@@H](O)[C@@H]3O)O[C@@H]2CO)[C@H](O)[C@H](O)[C@H]1O [KIZUTA CIRENSENOSIDE O SAPONIN K3]	> 50 µM	–
CC1(C)CC[C@]2(C(=O)O)CC[C@]3(C)C(=CC[C@@H]4[C@@]5(C)CC[C@@H](O)[C@@](C)(CO)[C@@H]5CC[C@]43C)[C@@H]2C1	> 50 µM	–
C[C@@H]1O[C@@H](O[C@H]2[C@H](O[C@H]3CC[C@]4(C)[C@H]5CC=C6[C@@H]7CC(C)(C)CC[C@]7(C(=O)O[C@@H]7O[C@H](CO[C@@H]8O[C@H](CO)[C@@H](O[C@@H]9O[C@@H](C)[C@H](O)[C@@H](O)[C@H]9O)[C@H](O)[C@H]8O)[C@@H](O)[C@H](O)[C@H]7O)CC[C@@]6(C)[C@]5(C)CC[C@H]4C3(C)C)OC[C@H](O)[C@@H]2O)[C@H](O)[C@H](O)[C@H]1O [HEDERASAPONIN B]	> 50 µM	–
CC1(C)[C@H](O)CC[C@]2(C)[C@H]3CC=C4[C@@H]5C[C@](C)(CO)CC[C@]5(C(=O)O)CC[C@@]4(C)[C@]3(C)CC[C@@H]12	> 50 µM	–
C[C@@H]1O[C@@H](O[C@H]2[C@H](O)[C@@H](O)[C@H](OC[C@H]3O[C@@H](OC(=O)[C@]45CCC(C)(C)C[C@H]4C4=CC[C@@H]6[C@@]7(C)CC[C@H](O[C@@H]8OC[C@H](O)[C@H](O[C@@H]9OC[C@H](O)[C@H](O)[C@H]9O)[C@H]8O)C(C)(C)[C@@H]7CC[C@@]6(C)[C@]4(C)CC5)[C@H](O)[C@@H](O)[C@@H]3O)O[C@@H]2CO)[C@H](O)[C@H](O)[C@H]1O	> 50 µM	–
COc1cc(CCC(=O)O)ccc1O [DIHYDROFERULIC ACID]	> 50 µM	–
CC1(C)CC[C@]2(C(=O)O)CC[C@]3(C)C(=CC[C@@H]4[C@@]5(C)CC[C@H](O[C@@H]6O[C@H](CO)[C@@H](O)[C@H](O)[C@H]6O)[C@@](C)(CO)[C@@H]5CC[C@]43C)[C@@H]2C1 [Hederagenin-3-O-beta-D-glucopyranoside]	13.4 µM	–
CC1(C)CC[C@]2(C(=O)O)CC[C@]3(C)C(=CC[C@@H]4[C@@]5(C)CC[C@H](O[C@@H]6OC[C@H](O)[C@H](O)[C@H]6O)[C@@](C)(CO)[C@@H]5CC[C@]43C)[C@@H]2C1	2.25 to 2.3 µM	–
COC(=O)C(CC(=O)O)OC(=O)/C=C/c1ccc(O)c(O)c1 (stereo not drawn)	> 50 µM	–

Now from value to molecule, other results behind:

IC50 (RAW264.7 [3])	SMILES	further results
> 50 µM	CC1(C)CC[C@]2(C(=O)O[C@@H]3O[C@H](CO[C@@H]4O[C@H](CO)[C@@H](O)[C@H](O)[C@H]4O)[C@@H](O)[C@H](O)[C@H]3O)CC[C@]3(C)C(=CC[C@@H]4[C@@]5(C)CC[C@H](O[C@@H]6OC[C@H](O)[C@H](O)[C@H]6O[C@@H]6O[C@H](CO)[C@@H](O)[C@H](O)[C@H]6O)C(C)(C)[C@@H]5CC[C@]43C)[C@@H]2C1	–
4.2 to 4.21 µM	C[C@@H]1O[C@@H](O[C@H]2[C@H](O[C@H]3CC[C@@]4(C)[C@@H](CC[C@]5(C)[C@@H]4CC=C4[C@@H]6CC(C)(C)CC[C@]6(C(=O)O)CC[C@]45C)[C@]3(C)CO)O[C@H](CO)[C@@H](O)[C@@H]2O)[C@H](O)[C@H](O)[C@H]1O	–
3.1 to 3.13 µM	CC1(C)CC[C@]2(C(=O)O)CC[C@]3(C)C(=CC[C@@H]4[C@@]5(C)CC[C@H](O[C@@H]6O[C@H](CO)[C@@H](O)[C@H](O)[C@H]6O[C@@H]6OC[C@H](O)[C@H](O)[C@H]6O)C(C)(C)[C@@H]5CC[C@]43C)[C@@H]2C1	–
> 50 µM	COc1cc(O)cc(OC)c1O[C@@H]1O[C@H](CO)[C@@H](O)[C@H](O)[C@H]1O [LEONURISIDE]	–
3.68 to 3.7 µM	C[C@@H]1O[C@@H](O[C@H]2[C@H](O)[C@@H](O)[C@H](OC[C@H]3O[C@@H](OC(=O)[C@]45CCC(C)(C)C[C@H]4C4=CC[C@@H]6[C@@]7(C)CC[C@H](O[C@@H]8OC[C@H](O)[C@H](O)[C@H]8O)[C@@](C)(CO)[C@@H]7CC[C@@]6(C)[C@]4(C)CC5)[C@H](O)[C@@H](O)[C@@H]3O)O[C@@H]2CO)[C@H](O)[C@H](O)[C@H]1O [CAULOSIDE D]	viability at 18 h [4]: < 60%
> 50 µM	C[C@@H]1O[C@@H](O[C@H]2[C@H](O[C@H]3CC[C@]4(C)[C@H]5CC=C6[C@@H]7CC(C)(C)CC[C@]7(C(=O)O[C@@H]7O[C@H](CO)[C@@H](O)[C@H](O)[C@H]7O)CC[C@@]6(C)[C@]5(C)CC[C@H]4C3(C)C)OC[C@H](O)[C@@H]2O)[C@H](O)[C@H](O)[C@H]1O	–
1.3 to 1.33 µM	C[C@@H]1O[C@@H](O[C@H]2[C@H](O[C@H]3CC[C@]4(C)[C@H]5CC=C6[C@@H]7CC(C)(C)CC[C@]7(C(=O)O)CC[C@@]6(C)[C@]5(C)CC[C@H]4C3(C)C)OC[C@H](O)[C@@H]2O)[C@H](O)[C@H](O)[C@H]1O	inhibition (RAW264.7 [1]): Active; inhibition (RAW264.7 [2]): Active
> 50 µM	CC1(C)CC[C@]2(C(=O)O[C@@H]3O[C@H](CO[C@@H]4O[C@H](CO)[C@@H](O)[C@H](O)[C@H]4O)[C@@H](O)[C@H](O)[C@H]3O)CC[C@]3(C)C(=CC[C@@H]4[C@@]5(C)CC[C@H](O[C@@H]6OC[C@H](O)[C@H](O)[C@H]6O)[C@@](C)(CO)[C@@H]5CC[C@]43C)[C@@H]2C1	–
> 50 µM	CC1(C)CC[C@]2(C(=O)O[C@@H]3O[C@H](CO[C@@H]4O[C@H](CO)[C@@H](O)[C@H](O)[C@H]4O)[C@@H](O)[C@H](O)[C@H]3O)CC[C@]3(C)C(=CC[C@@H]4[C@@]5(C)CC[C@H](O[C@@H]6O[C@H](CO)[C@@H](O)[C@H](O)[C@H]6O)C(C)(C)[C@@H]5CC[C@]43C)[C@@H]2C1	–
> 50 µM	C[C@@H]1O[C@@H](O[C@H]2[C@H](O[C@H]3CC[C@@]4(C)[C@@H](CC[C@]5(C)[C@@H]4CC=C4[C@@H]6CC(C)(C)CC[C@]6(C(=O)O[C@@H]6O[C@H](CO[C@@H]7O[C@H](CO)[C@@H](O[C@@H]8O[C@@H](C)[C@H](O)[C@@H](O)[C@H]8O)[C@H](O)[C@H]7O)[C@@H](O)[C@H](O)[C@H]6O)CC[C@]45C)[C@]3(C)CO)OC[C@H](O)[C@@H]2O)[C@H](O)[C@H](O)[C@H]1O [KALOPANAXSAPONIN B]	–
4 to 4.04 µM	CC1(C)CC[C@]2(C(=O)O)CC[C@]3(C)C(=CC[C@@H]4[C@@]5(C)CC[C@H](O[C@@H]6OC[C@H](O)[C@H](O)[C@H]6O)C(C)(C)[C@@H]5CC[C@]43C)[C@@H]2C1	–
> 50 µM	C[C@@H]1O[C@@H](O[C@H]2[C@H](O[C@H]3CC[C@]4(C)[C@H]5CC=C6[C@@H]7CC(C)(C)CC[C@]7(C(=O)O)CC[C@@]6(C)[C@]5(C)CC[C@H]4C3(C)C)OC[C@H](O[C@@H]3O[C@H](CO)[C@@H](O)[C@H](O)[C@H]3O)[C@@H]2O)[C@H](O)[C@H](O)[C@H]1O[C@@H]1O[C@H](CO)[C@@H](O)[C@H](O)[C@H]1O	–
15.2 µM	CC1(C)CC[C@]2(C(=O)O)CC[C@]3(C)C(=CC[C@@H]4[C@@]5(C)C[C@@H](O)[C@H](O)[C@@](C)(CO)[C@@H]5CC[C@]43C)[C@@H]2C1 [ARJUNOLIC ACID]	–
> 50 µM	C[C@@H]1O[C@@H](O[C@H]2[C@H](O)[C@@H](O)[C@H](OC[C@H]3O[C@@H](OC(=O)[C@]45CCC(C)(C)C[C@H]4C4=CC[C@@H]6[C@@]7(C)CC[C@H](O[C@@H]8OC[C@H](O)[C@H](O)[C@H]8O[C@@H]8O[C@H](CO)[C@@H](O)[C@H](O)[C@H]8O)C(C)(C)[C@@H]7CC[C@@]6(C)[C@]4(C)CC5)[C@H](O)[C@@H](O)[C@@H]3O)O[C@@H]2CO)[C@H](O)[C@H](O)[C@H]1O	–
0.01 µM	C[C@@H]1C[C@H]2[C@@H]3CCC4=CC(=O)C=C[C@]4(C)[C@@]3(F)[C@@H](O)C[C@]2(C)[C@@]1(O)C(=O)CO [DEXAMETHASONE]	–
1.5 µM	C[C@@H]1O[C@@H](O[C@H]2[C@H](O[C@H]3CC[C@]4(C)[C@H]5CC=C6[C@@H]7CC(C)(C)CC[C@]7(C(=O)O)CC[C@@]6(C)[C@]5(C)CC[C@H]4C3(C)C)O[C@H](CO)[C@@H](O)[C@@H]2O)[C@H](O)[C@H](O)[C@H]1O	viability at 18 h [4]: < 60%

— ChEMBL document CHEMBL4387783, “Bioactive triterpene glycosides from the fruit of Stauntonia hexaphylla and insights into the molecular mechanism of its inflammatory effects” (Bioorg Med Chem Lett, 2019)
